US12023385B2, “Tunable endogenous protein degradation with heterobifunctional compounds” (DANA-FARBER CANCER INSTITUTE, INC., priority 2017, dated 2024)
“Also recorded” adds a separate entry of the source.

Assays:
[1] = test system: FKBP*-KRASG12V; test: Immunoblot of FKBP*-KRASG12V (dTAG-KRAS) degradation in NIH3T3 cells; assay type: cell-based
Method: (§1) Cells were treated with 500 nM dFKBP7 for the indicated time. Cells were harvested and immunoblotted to measure degradation of FKBP*-KRAS and downstream surrogates of KRAS signaling (e.g. pMEK and pAKT).
(§2) Western blotting of NIH3T3 cells expressing dTAG-KRASG12V were treated with 1 μM of the indicated dFKBP heterobifunctional compounds for 24 hours. Cells were harvested and immunoblotted to measure degradation of FKBP*-KRAS and downstream surrogates of KRAS signaling (e.g. pMEK and pAKT).
(§3) Western blotting of NIH3T3 cells expressing FKBP* fused to the N-terminus of KRAS treated with the indicated concentrations of dFKBP13 for 24 hours. Cells were harvested and immunoblotted to measure degradation of FKBP*-KRAS and downstream surrogates of KRAS signaling (e.g. pMEK and pAKT).
(§4) To evaluate the kinetic control of targeted degradation of dTAG-KRAS, dFKBP13 was administered by increased duration. Western blotting of NIH3T3 cells expressing FKBP* fused to the N-terminus of KRAS treated with 1 μM dFKBP13 for the indicated time. Cells were harvested and immunoblotted to measure degradation of FKBP*-KRAS and downstream surrogates of KRAS signaling (e.g. pMEK and pAKT).
NIH3T3 cells (CRBN-WT) were engineered to express dTAG-KRASG12V. […]

[2] = test system: KRAS signaling (pMEK and pAKT); test: Immunoblot of downstream surrogates of KRAS signaling in NIH3T3 cells expressing dTAG-KRAS; assay type: cell-based
Method: as §1
as §2, with “In an effort to identify the best performing dFKBP molecule, dTAG-KRAS degradation was profiled across a series of dFKBP molecules. Western” for “Western”
as §3, §4
The dFKBP13 heterobifunctional compound potently degrades dTAG-KRAS mutant alleles. […]

[3] = target: T1, FKBP12WT (Homo sapiens, UniProt P62942); test: Immunoblot of wild type FKBP12 in 293FT cells (selectivity control); assay type: cell-based; conditions: 4 hours
T1 construct: HA; expressed in transfected cells; host or cells: 293FT cells (CRBN-WT or CRBN-/-)
T1 sequence (P62942 whole entry): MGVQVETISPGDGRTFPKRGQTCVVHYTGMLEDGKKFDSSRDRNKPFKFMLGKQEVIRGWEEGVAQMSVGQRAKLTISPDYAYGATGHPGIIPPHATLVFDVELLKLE
Method: The dTAG is predicated on the selectivity of FKBP* specific ligands over endogenous, wild type FKBP. […] An immunoblot of cells treated with heterobifunctional compounds described in the present invention was performed. 293FT cells (CRBN-WT or CRBN−/−) expressing either HA-tagged FKBP12WT or FKBP* were treated with indicated concentrations of dFKBP7 for 4 hours.
(§5) Isogenic 293FT cells (CRBN-WT or CRBN−/−) were engineered to expressed either FKBP12WT or FKBP*. Cells were treated with 100 nM of either dFKBP7 or dFKBP13 for 4 hours before lysates were prepared for western immunoblot analysis.

[4] = target: T2, FKBP* fused to Nluc (Homo sapiens, UniProt P62942, F37V); test: Nluc/Fluc luciferase ratio assay of FKBP* degradation in 293FT cells; assay type: cell-based; conditions: wild type or CRBN−/− 293FT cells, indicated concentrations, 4 hours
T2 construct: Nluc (nano luciferase) fusion partner; expressed in transfected cells; host or cells: 293FT cells (wild type or CRBN-/-)
T2 sequence (P62942 2-108 F37V): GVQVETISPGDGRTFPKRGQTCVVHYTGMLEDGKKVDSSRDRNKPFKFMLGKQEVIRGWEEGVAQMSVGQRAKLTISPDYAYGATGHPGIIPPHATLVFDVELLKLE
T2 sequence (Q96SW2 whole entry partner, the tested form may be a part): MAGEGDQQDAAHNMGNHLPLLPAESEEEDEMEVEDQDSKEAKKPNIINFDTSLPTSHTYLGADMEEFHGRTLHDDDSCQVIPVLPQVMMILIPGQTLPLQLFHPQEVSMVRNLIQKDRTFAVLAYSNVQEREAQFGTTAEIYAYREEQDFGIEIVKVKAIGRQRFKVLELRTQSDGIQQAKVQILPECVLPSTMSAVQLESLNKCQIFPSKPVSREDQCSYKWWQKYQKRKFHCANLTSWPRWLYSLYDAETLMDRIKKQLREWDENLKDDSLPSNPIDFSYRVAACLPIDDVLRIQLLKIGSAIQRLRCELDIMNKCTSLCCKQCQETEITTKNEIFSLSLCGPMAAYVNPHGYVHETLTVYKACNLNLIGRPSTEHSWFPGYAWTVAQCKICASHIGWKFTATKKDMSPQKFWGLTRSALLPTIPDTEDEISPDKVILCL
T2 sequence (Q16531 whole entry partner, the tested form may be a part): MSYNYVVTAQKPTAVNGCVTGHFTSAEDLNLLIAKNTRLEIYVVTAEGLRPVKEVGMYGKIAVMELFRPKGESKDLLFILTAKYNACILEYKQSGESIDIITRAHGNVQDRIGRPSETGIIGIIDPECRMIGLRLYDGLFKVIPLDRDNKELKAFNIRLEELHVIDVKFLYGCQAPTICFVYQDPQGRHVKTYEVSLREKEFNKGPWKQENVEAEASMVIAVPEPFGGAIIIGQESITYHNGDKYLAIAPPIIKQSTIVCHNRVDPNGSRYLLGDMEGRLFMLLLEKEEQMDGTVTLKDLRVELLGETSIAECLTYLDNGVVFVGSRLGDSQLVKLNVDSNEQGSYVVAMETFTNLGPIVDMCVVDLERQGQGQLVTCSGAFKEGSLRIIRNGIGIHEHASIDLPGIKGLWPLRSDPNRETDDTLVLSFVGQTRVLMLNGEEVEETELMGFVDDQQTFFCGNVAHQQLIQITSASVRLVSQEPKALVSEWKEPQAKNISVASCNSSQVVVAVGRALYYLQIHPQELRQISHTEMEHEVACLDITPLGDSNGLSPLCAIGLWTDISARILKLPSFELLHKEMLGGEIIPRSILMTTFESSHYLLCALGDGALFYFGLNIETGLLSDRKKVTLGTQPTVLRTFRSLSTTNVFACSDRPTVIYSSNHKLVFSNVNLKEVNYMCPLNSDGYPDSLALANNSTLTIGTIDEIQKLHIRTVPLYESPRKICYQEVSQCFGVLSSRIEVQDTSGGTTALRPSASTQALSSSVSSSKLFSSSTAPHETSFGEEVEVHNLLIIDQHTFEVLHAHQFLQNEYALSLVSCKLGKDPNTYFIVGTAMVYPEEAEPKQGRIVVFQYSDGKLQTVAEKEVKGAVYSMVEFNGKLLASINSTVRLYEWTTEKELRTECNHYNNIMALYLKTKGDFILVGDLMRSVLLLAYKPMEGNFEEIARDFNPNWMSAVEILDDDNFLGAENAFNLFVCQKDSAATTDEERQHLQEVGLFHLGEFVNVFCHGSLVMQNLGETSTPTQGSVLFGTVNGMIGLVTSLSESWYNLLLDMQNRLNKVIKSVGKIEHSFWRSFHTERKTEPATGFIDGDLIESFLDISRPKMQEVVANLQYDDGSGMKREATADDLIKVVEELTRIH
Method: In an effort to identify potent and selective dFKPB heterobifunctional compounds, high throughput measurements of targeted FKBP* degradation were measured by surrogate levels of luciferase. Here, FKBP* is exogenously expressed as a multicistronic transcript with two types of luciferase: nano luciferase (NLuc) and firefly luciferase (FLuc) that allow for cell normalized quantification of FKBP* protein levels. Degradation of FKBP* is measured as a signal ration (Nluc/Fluc) in wild type (FIG. 4A) or CRBN −/− (FIG. 4B) 293FT cells treated with indicated concentrations of dFKBPs for 4 hours.

[5] = test system: indicated proteins fused to mutant FKBP* with an HA tag; test: Immunoblot of proteins fused to dTAG (FKBP*) in MV4;11 leukemia cells; conditions: indicated concentrations, 16 hours, western blot
Source text: To test the general utility of the dTAG technology across several protein types, the indicated proteins fused to the dTAG in MV4;11 leukemia cells were expressed.

[6] = target: T3, FKBP* (Homo sapiens, UniProt P62942, F37V); test: Immunoblot of FKBP* degradation in 293FT cells (CRBN-WT or CRBN−/−); assay type: cell-based; conditions: 4 hours
T3 construct: HA; expressed in transfected cells; host or cells: 293FT cells (CRBN-WT or CRBN-/-)
T3 sequence (P62942 whole entry F37V): as the sequence (P62942 whole entry) above, with F37V counted along it
Method: The dTAG is predicated on the selectivity of FKBP* specific ligands over endogenous, wild type FKBP. In 293T cells expressing wild type FKBP12 or FKBP*, dFKBP7 induces targeted degradation only in FKBP* expressing cells. An immunoblot of cells treated with heterobifunctional compounds described in the present invention was performed. 293FT cells (CRBN-WT or CRBN−/−) expressing either HA-tagged FKBP12WT or FKBP* were treated with indicated concentrations of dFKBP7 for 4 hours.
as §5, with “In 293T cells expressing wild type FKBP12 or FKBP*, treatment with dFKBP7 and dFKBP13 induces targeted degradation only in FKBP* expressing cells. Isogenic” for “Isogenic”
In an effort to define the optimal concentration of dFKB13 heterobifunctional compound to induce degradation of FKBP*, degradation was measured upon treatment with increasing concentrations of dFKBP13. Isogenic 293FT cells (CRBN-WT or CRBN−/−) were engineered to expressed HA-tagged FKBP*. Cells were treated with the indicated dose of dFKBP13 for 4 hours before lysates were prepared for western immunoblot analysis.
To evaluate the kinetic control of targeted degradation FKBP*, dFKBP13 was administered by increased duration. […]

[7] = test system: NIH3T3 cells expressing dTAG-KRASG12V; test: Propidium iodide cell cycle analysis of NIH3T3 cells expressing dTAG-KRASG12V; assay type: cell-based; conditions: 48 hours
Method: NIH3T3 cells were engineered to express dTAG-KRASG12V. NIH3T3 cells expressing dTAG-KRASG12V were treated with dFKBP7 and dFKBP13 for 48 hours to induce targeted dTAG-KRASG12V degradation. Fixed cells were stained with propidium iodide and cell cycle analysis was performed.

[8] = NIH3T3 dTAG-KRASG12V, 1 μM, 24 hours
[9] = 293FT CRBN-WT or CRBN−/−, indicated concentrations
[10] = isogenic 293FT CRBN-WT or CRBN−/−, 100 nM

| Structure (SMILES) | degradation of FKBP*-KRAS [1, 8] | inhibition of downstream signaling (pMEK, pAKT) [2, 8] | degradation of N-terminal dTAG-KRAS ([1]; NIH3T3, 500 nM, indicated time) | degradation of HA-tagged FKBP12WT [3, 9] | degradation of FKBP12WT or endogenous FKBP12 [3, 10] | degradation of FKBP* as signal ratio (Nluc/Fluc) [4] | downstream p-AKT signal ([2]; NIH3T3 N-terminal dTAG-KRAS, 500 nM, indicated time) | targeted degradation of proteins fused to dTAG [5] | degradation of HA-tagged FKBP* [6, 9] | degradation of FKBP* [6, 10] | cell cycle profile (S-phase entry) [7] |
| --- | --- | --- | --- | --- | --- | --- | --- | --- | --- | --- | --- |
| CC[C@H](C(=O)N1CCCC[C@H]1C(=O)O[C@H](CCc1ccc(OC)c(OC)c1)c1cccc(OCC(=O)NCCCCCCCCNC(=O)COc2cccc3c2C(=O)N(C2CCC(=O)NC2=O)C3=O)c1)c1cc(OC)c(OC)c(OC)c1 (some centres unmarked) [dFKBP9] | potent degradation | inhibition of downstream signaling | – | – | – | – | – | – | – | – | – |
| CC[C@H](C(=O)N1CCCC[C@H]1C(=O)O[C@H](CCc1ccc(OC)c(OC)c1)c1cccc(OCC(=O)NCCCOCCOCCOCCCNC(=O)COc2cccc3c2C(=O)N(C2CCC(=O)NC2=O)C3=O)c1)c1cc(OC)c(OC)c(OC)c1 (some centres unmarked) [dFKBP7] | – | – | potent degradation; also recorded: degraded | not FKBPWT | not FKBP12WT or endogenous FKBP12 | effectively degrade FKBP* in a cereblon dependent manner | decrease in p-AKT signal | degradation was observed with nanomolar concentrations | CRBN-dependent degradation of FKBP* | CRBN-dependent degradation of FKBP* | diminished S-phase entry |
